Experimental data published in patent US10556865B2, “Synergistic herbicidal composition containing certain pyridine or pyrimidine carboxylic acids and certain cereal and rice herbicides” (Dow AgroSciences, LLC, priority 2007, dated 2020).
Where “and” joins values, the source holds several entries; their conditions need not be identical. Identical values can stand only once.

How the values were obtained:
Assay type in all cases: in vivo
[1] = system: Polygonum pensylvanicum L. (POLPY); test: Postemergence herbicidal mixtures for weed control in direct seeded rice (greenhouse, visual % injury)
[2] = system: Polygonum persicaria L. (POLPE); test: as above
[3] = system: Leptochloa chinensis (L.) NEES (LEFCH); test: as above
[4] = system: Scirpus maritimus L. (SCPMA); test: as above
[5] = system: Cyperus esculentus L. (CYPES); test: as above
[6] = system: Ipomoea hederacea (L.) JACQ. (IPOHE); test: Postemergence herbicidal mixtures for weed control in direct seeded rice (greenhouse, visual % injury after 3 weeks)
Cyperus iria L. (CYPIR) = test: Postemergence herbicidal mixtures for weed control in direct seeded rice (greenhouse, visual % injury)
[7] = system: Ischaemum rugosum SALISB. (ISCRU); test: as above

CCCCOC(=O)c1nc(-c2ccc(Cl)c(OC)c2F)cc(N)c1Cl [Compound A n-Butyl]
% Injury POLPY Ob ([1]; alone 8.75 g/ha): 40% | % Injury POLPY Ob ([1]; alone 17.5 g/ha): 90% | % Injury POLPE Ob ([2]; alone 4.38 g/ha): 40% | % Injury POLPE Ob ([2]; alone 8.75 g/ha): 60% | % Injury LEFCH Ob ([3]; alone 8.75 g/ha): 10% | % Injury LEFCH Ob ([3]; alone 17.5 g/ha): 30% | % Injury LEFCH Ob ([3]; alone 35 g/ha): 60% | % Injury at 11 DAA SCPMA Ob ([4]; alone 35 g/ha): 30% | % Injury at 11 DAA SCPMA Ob ([4]; alone 70 g/ha): 100% | % Injury at 21 DAA SCPMA Ob ([4]; alone 35 g/ha): 50% | % Injury at 21 DAA SCPMA Ob ([4]; alone 70 g/ha): 100% | % Injury 11 DAA CYPES Ob ([5]; alone 35 g/ha): 50% | % Injury 11 DAA CYPES Ob ([5]; alone 70 g/ha): 75% | % Injury 21 DAA CYPES Ob ([5]; alone 35 g/ha): 90% | % Injury 21 DAA CYPES Ob ([5]; alone 70 g/ha): 100% | % Injury CYPES Ob ([5]; alone 8.75 g/ha): 50% | % Injury CYPES Ob ([5]; alone 17.5 g/ha): 85% and 90% | % Injury IPOHE Ob ([6]; alone 8.75 g/ha): 35% | % Injury IPOHE Ob ([6]; alone 17.5 g/ha): 30% | % Injury at 11 DAA CYPIR Ob (Cyperus iria L. (CYPIR); alone 35 g/ha): 60% | % Injury at 11 DAA CYPIR Ob (Cyperus iria L. (CYPIR); alone 70 g/ha): 90% | % Injury at 21 DAA CYPIR Ob (Cyperus iria L. (CYPIR); alone 35 g/ha): 60% | % Injury at 21 DAA CYPIR Ob (Cyperus iria L. (CYPIR); alone 70 g/ha): 100% | % Injury ISCRU Ob ([7]; alone 35 g/ha): 20% | % Injury ISCRU Ob ([7]; alone 70 g/ha): 50%

CCC(=O)Nc1ccc(Cl)c(Cl)c1 [Propanil]
% Injury POLPE Ob ([2]; alone 560 g/ha): 10% | % Injury POLPE Ob ([2]; alone 1120 g/ha): 40% | % Injury at 11 DAA SCPMA Ob ([4]; alone 560 g/ha): 30% | % Injury at 11 DAA SCPMA Ob ([4]; alone 1120 g/ha): 30% | % Injury at 21 DAA SCPMA Ob ([4]; alone 560 g/ha): 0% | % Injury at 21 DAA SCPMA Ob ([4]; alone 1120 g/ha): 0% | % Injury IPOHE Ob ([6]; alone 560 g/ha): 10% | % Injury IPOHE Ob ([6]; alone 1120 g/ha): 10% | % Injury at 11 DAA CYPIR Ob (Cyperus iria L. (CYPIR); alone 560 g/ha): 10% | % Injury at 11 DAA CYPIR Ob (Cyperus iria L. (CYPIR); alone 1120 g/ha): 10% | % Injury at 21 DAA CYPIR Ob (Cyperus iria L. (CYPIR); alone 560 g/ha): 0% | % Injury at 21 DAA CYPIR Ob (Cyperus iria L. (CYPIR); alone 1120 g/ha): 0%

CCOC(=O)C(Cl)Cc1cc(-n2nc(C)n(C(F)F)c2=O)c(F)cc1Cl (stereo not shown) [Carfentrazone-ethyl]
% Injury POLPE Ob ([2]; alone 14 g/ha): 0% | % Injury 11 DAA CYPES Ob ([5]; alone 14 g/ha): 10% | % Injury 11 DAA CYPES Ob ([5]; alone 28 g/ha): 10% | % Injury 21 DAA CYPES Ob ([5]; alone 14 g/ha): 0% | % Injury 21 DAA CYPES Ob ([5]; alone 28 g/ha): 0% | % Injury CYPES Ob ([5]; alone 56 g/ha): 10% | % Injury CYPES Ob ([5]; alone 112 g/ha): 0% | % Injury CYPIR Ob (Cyperus iria L. (CYPIR); alone 14 g/ha): 0% | % Injury CYPIR Ob (Cyperus iria L. (CYPIR); alone 28 g/ha): 0%
